Data set [1] deals with IL-1β induced PGE2 production in human amnionic WISH cells. Nature of the data set: IL-1β Induced PGE2 Production in WISH Cells. It is filed as cell-based. To be noted: IL-1β 18 hour. The method, then:
(§1) EIA reagents for prostaglandin determination were purchased from Perseptive Diagnostics, (Cambridge, Mass.). Prostaglandin E2 (PGE2) levels in lavage fluids were determined after the samples were dried under nitrogen and reconstituted with assay buffer. PGE2 levels in enzyme assays or cell culture media were measured against standards prepared in the same milieu. The immunoassays were conducted as recommended by the manufacturer. The EIA was conducted in 96 well microtiter plates (Nunc Roskilde, Denmark) and optical density was measured using a microplate reader (Vmax, Molecular Devices Corp., Menlo Park, Calif.).
Human amnionic WISH cells were grown to 80% confluence in 48 well plates. Following removal of the growth medium and two washings with Gey's Balanced Salt Solution, 5 ng IL-1β/ml (UBI, Lake Placid, N.Y.) was added to the cells with or without test compound in DMSO (0.01% v/v) in Neuman-Tytell Serumless Medium (GIBCO, Grand Island, N.Y.). Following an 18 hour incubation to allow for the maximal induction of PGHS-2, the conditioned medium was removed and assayed for PGE2 content by EIA anylysis as described above.
WISH cell values indicate percent inhibition at the particular dose level.

The subject of data set [2] is prostaglandin biosynthesis in vivo. As to the kind of experiment: Rat Carrageenan Pleural Inflammation (CIP) Model. The following applies: 10 mg/kg oral, 30 minutes prior to intrapleural carrageenan, lavage four hours later. The method, then:
For oral administration, test compounds were suspended on the day of use in 100% polyethyleneglycol (PEG 400) with a motorized homogenizer equipped with a Teflon-coated pestle (TRI-R Instrument, Jamaica, N.Y.).
(§2) To compare the mean responses of the treatment groups, analysis of variance was applied. Percent inhibition values were determined by comparing the individual treatment mean values to the mean of the control group. Linear regression was used to estimate IC50's/ED50's in appropriate assays.
as §1
Pleural inflammation was induced in male adrenalectomized Sprague-Dawley rats following the method of Vinegar et al., Fed. Proc. 1976, 35, 2447-2456. […] Eicosanoids were determined by EIA as described above. […]

The target of data set [3] is T1, recombinant human Cox-1 (r-hu Cox-1, PGHS-1) (Homo sapiens, UniProt P23219).
T1 construct: made in house; host or cells: baculovirus/Sf9 insect cells (microsomes)
T1 sequence (P23219 24-599): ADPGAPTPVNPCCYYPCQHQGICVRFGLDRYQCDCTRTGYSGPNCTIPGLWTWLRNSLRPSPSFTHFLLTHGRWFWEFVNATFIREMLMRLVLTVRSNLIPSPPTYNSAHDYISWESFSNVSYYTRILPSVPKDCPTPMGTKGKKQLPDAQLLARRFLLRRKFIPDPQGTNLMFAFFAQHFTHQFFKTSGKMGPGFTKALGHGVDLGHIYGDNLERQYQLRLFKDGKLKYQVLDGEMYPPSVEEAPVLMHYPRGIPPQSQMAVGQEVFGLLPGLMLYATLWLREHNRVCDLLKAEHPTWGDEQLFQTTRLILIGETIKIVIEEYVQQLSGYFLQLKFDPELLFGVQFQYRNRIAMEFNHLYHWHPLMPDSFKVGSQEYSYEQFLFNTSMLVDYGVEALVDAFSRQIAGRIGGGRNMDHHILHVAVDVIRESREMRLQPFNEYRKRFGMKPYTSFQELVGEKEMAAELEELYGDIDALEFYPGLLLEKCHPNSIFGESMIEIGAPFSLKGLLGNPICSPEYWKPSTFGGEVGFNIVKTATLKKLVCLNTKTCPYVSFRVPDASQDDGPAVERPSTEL
Nature of the data set: Recombinant human PGHS-1 (r-hu Cox-1) enzyme assay, PGE2 by EIA. The following applies: at 100 μM; read-out: r-hu COX1 percent inhibition. It counts as biochemical. The method, then:
as §2, §1
(§3) Inhibition of prostaglandin biosynthesis in vitro was evaluated using recombinant human Cox-1 (r-hu Cox-1) and Cox-2 (r-hu Cox-2) enzyme assays. […] The reaction was allowed to run for 2.5 minutes at room temperature prior to quenching with HCl and neutralization with NaOH. PGE2 production in the presence and absence of the drug was determined by EIA analysis. The EIA was conducted in 96 well microtiter plates (Nunc Roskilde, Denmark) and optical density was measured using a microplate reader (Vmax, Molecular Devices Corp., Menlo Park, Calif.). EIA reagent for prostaglandin determination were purchased from Perseptive Diagnostics (Cambridge, Mass.). PGE2 levels were measured against standards prepared in the same milieu. The immunoassays were conducted as recommended by the manufacturer.
(§4) The compounds are designated by the Example Number. […] Values for Cox-2 inhibition that are parenthetical indicate IC50 values.

For data set [4], the target named is T2, recombinant human Cox-2 (r-hu Cox-2, PGHS-2) (Homo sapiens, UniProt P35354).
T2 construct: made in house; host or cells: baculovirus/Sf9 insect cells (microsomes)
T2 sequence (P35354 18-604): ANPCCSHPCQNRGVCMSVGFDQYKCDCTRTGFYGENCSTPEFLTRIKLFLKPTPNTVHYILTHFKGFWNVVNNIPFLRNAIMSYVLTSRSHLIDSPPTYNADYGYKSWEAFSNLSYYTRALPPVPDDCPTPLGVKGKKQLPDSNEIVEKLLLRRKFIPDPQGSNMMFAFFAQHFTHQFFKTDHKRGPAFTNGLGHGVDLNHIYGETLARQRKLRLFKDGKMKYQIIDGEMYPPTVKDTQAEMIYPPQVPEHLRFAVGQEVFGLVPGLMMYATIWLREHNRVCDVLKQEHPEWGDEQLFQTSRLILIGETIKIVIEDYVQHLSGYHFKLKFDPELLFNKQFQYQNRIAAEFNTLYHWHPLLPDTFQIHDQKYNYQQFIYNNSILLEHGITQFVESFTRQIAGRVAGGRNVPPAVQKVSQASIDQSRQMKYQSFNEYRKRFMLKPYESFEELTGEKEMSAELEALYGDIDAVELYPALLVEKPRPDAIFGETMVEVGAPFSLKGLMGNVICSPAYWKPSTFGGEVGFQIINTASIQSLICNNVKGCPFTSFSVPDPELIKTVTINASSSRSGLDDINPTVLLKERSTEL
As to the kind of experiment: Recombinant human PGHS-2 (r-hu Cox-2) enzyme assay, PGE2 by EIA. It is filed as biochemical. The following applies: read-out: r-hu COX2 percent inhibition. The method, then: as §2, §1, §3, §4

The results in this text go back to patent US6472416B1, “Sulfonylphenylpyrazole compounds useful as COX-2 inhibitors” (Abbott Laboratories, priority 1999, dated 2002).

Regarding “1-(4-Fluorophenyl)-2-{[4-(4-fluorophenyl)-1-methyl-5-(4-(methylsulphonyl)phenyl)-1H-pyrazol-3-yl]oxy}ethan-1-one and; 1-(4-Fluorophenyl)-2-{[4-(4-fluorophenyl)-1-methyl-3-(4-(methylsulphonyl)phenyl)-1H-pyrazol-5-yl]oxy}ethan-1-one [Example 35]”, the WISH percent inhibition in data set [1] (at 0.01 (nM)) is recorded as 38 @ 0.01%; in data set [1] (at 0.1 (nM)), 95 @ 0.1%.

For the compound `CC(=O)n1nc(OCC(=O)C(C)(C)C)c(-c2ccccc2)c1-c1ccc(S(C)(=O)=O)cc1` [Example 32, 1-[(1-Acetyl-5-(4-(methylsulphonyl)phenyl)-4-phenyl-1H-pyrazol-3-yl)oxy]-3,3-dimethylbutan-2-one], the melting point was in the range of 189 to 191 °C. For the same compound, the inhibition at 10 pM in data set [1] (Homo sapiens, at 0.01 (nM), read-out: WISH percent inhibition) was 47%.

As to `CC(C)(C)C(=O)COc1nn(CC=C(Cl)Cl)c(-c2ccc(S(C)(=O)=O)cc2)c1-c1ccc(F)cc1` [Example 26, 1-{[1-(3,3-Dichloroallyl)-4-(4-fluorophenyl)-5-(4-(methylsulphonyl)phenyl)-1H-pyrazol-3-yl]oxy}-3,3-dimethylbutan-2-one], the melting point was 156 to 158 °C. Besides, the inhibition at 0.0001 µM in data set [1] (Homo sapiens, at 0.1 (nM), read-out: WISH percent inhibition) is 64%.

In the case of `CCn1nc(OCC(=O)C(C)(C)C)c(-c2ccccc2)c1-c1ccc(S(C)(=O)=O)cc1` [Example 33, 1-[(1-Ethyl-5-(4-(methylsulphonyl)phenyl)-4-phenyl-1H-pyrazol-3-yl)oxy]-3,3-dimethylbutan-2-one], the melting point lay in the range of 158 to 161 °C. Also, the inhibition at 1 pM in data set [1] (Homo sapiens, at 0.001 (nM), read-out: WISH percent inhibition) stood at 78%.

As to `CS(=O)(=O)c1ccc(-c2c(-c3ccc(F)cc3)c(OCC(=O)c3ccc(F)cc3)nn2CC(=O)c2ccc(F)cc2)cc1` [Example 13, 2-[4-(4-Fluorophenyl)-5-(4-(methylsulphonyl)phenyl)-3-(2-oxo-2-(4-fluorophenyl)ethoxy)-1H-pyrazol-1-yl]-1-(4-fluorophenyl)ethan-1-one], the melting point is 194 to 196 °C. The “CIP Inh @ 10 mpk” value in data set [2] is reported as 22%. For the same compound, the inhibition at 100 µM in data set [3] was found to be 17%. Besides, the inhibition at 0.1 µM in data set [4] (at 100 nM) came out at 90%.

Consider `CS(=O)(=O)c1ccc(-c2c(-c3ccc(F)cc3)c(OCC(=O)c3ccccc3)nn2CC(=O)c2ccccc2)cc1` [Example 12, 2-[4-(4-Fluorophenyl)-5-(4-(methylsulphonyl)phenyl)-3-(2-oxo-2-phenylethoxy)-1H-pyrazol-1-yl]-1-phenylethan-1-one], for which the melting point lay within 151 to 152 °C. Moreover, the “CIP Inh @ 10 mpk” value in data set [2] worked out at 38%. For the same compound, in data set [3], the inhibition at 100 µM came out at 0%.

`CCn1nc(OC2COCCC2=O)c(-c2ccc(F)cc2)c1-c1ccc(S(C)(=O)=O)cc1` (centres unmarked) [Example 23, 3-[(1-Ethyl-4-(4-fluorophenyl)-5-(4-(methylsulphonyl)phenyl)-1H-pyrazol-3-yl)oxy]tetrahydro-4H-pyran-4-one] displayed a melting point of 181 to 182 °C. In addition, in data set [1] (Homo sapiens, at 1 (nM), read-out: WISH percent inhibition), the inhibition at 0.001 µM turned out to be 80%. In data set [3], the inhibition at 100 µM amounted to 27%. The inhibition at 10 µM in data set [4] (at 10000 nM) was 43%.

For `CCC(=O)COc1nn(CC(=O)CC)c(-c2ccc(S(C)(=O)=O)cc2)c1-c1ccc(F)cc1` [Example 34], the WISH percent inhibition in data set [1] (at 1 (nM)) is listed as 62 @ 1%.

What is called inhibition is the drop in the measured response relative to a control, in per cent. As usually defined, the melting point is the temperature, or range, at which the solid turns liquid.
